Laboratory results reported in article PMC11677527, “Predicting Pharmacokinetics of Active Constituents in Spatholobi caulis by Using Physiologically Based Pharmacokinetic Models” (Pharmaceuticals, 2024).
Where two headings read alike, the source gives them in different places.

Experiments:
[1] = Observed pharmacokinetics in rats after oral SPC (previous study); format: in vivo, rat; details: p.o. SPC
[2] = Verification pharmacokinetic experiment in rats, SPC 60 g crude drug/kg by gavage, UFLC-MS/MS, DAS 2.0; format: in vivo, rat
Protocol: To validate the accuracy of PBPK models in predicting the pharmacokinetics of SPC constituents at different oral doses, the pharmacokinetic behavior of these four constituents from SPC in rats were analyzed by UFLC-MS/MS. The parameters were calculated using Drug and Statistics Software version 2.0, and then these validated values (Val.) were used to check the accuracy of the Calc. values and evaluated by FE.
The pharmacokinetic fitting results of rats given 60 g crude drug/kg body weight of SPC by gavage were verified by experiments. The verification experiment was conducted according to our previous pharmacokinetic study. In brief, 1.5 mL suspension of SPC was given to rats by oral administration; 300 μL blood samples from orbital venous at 0.083, 0.25, 0.5, 0.75, 1.0, 1.5, 2, 3, 4, 6, 8, and 12 h were collected and pretreated with heparin sodium. After centrifugation, the plasma samples were obtained and further processed for subsequent detection by UFLC-MS/MS; the detailed analysis method is shown in Supplementary Data (Table S1 and Figure S1). The concentration-time curve of each compound was gained, and the pharmacokinetic parameters were calculated using DAS 2.0 software (DAS 2.0, Mathematical Pharmacology Professional Committee of China, Shanghai, China). The results of these four constituents were compared with the PBPK parameters predicted in rats at an oral dose of 60 g crude drug/kg body weight of SPC.
1. The instrument and analytical conditions of UFLC-MS/MS method
4 constituents (1. 3′-methoxydadizein; 2. 8-O-methylretusin; 3. Daidzin; and 4. […]
The internal standard (IS) carbamazepine with a purity of more than 99 % was purchased from Beijing JK-chemical technology Co. Ltd., (Beijing China). Heparin sodium was gained from Tianjin biochemical pharmaceutical Co. Ltd, (Tianjin, China).
Ammonium acetate of HPLC grade, methanol and acetonitrile of LC-MS grade were purchased from Sigma (LOT# BCBK6717V, sigma-aldrich, Co., MO, USA) and Fisher (Fisher Corp., Fair lawn, NJ, USA) respectively. The experimental ultrapure water was prepared by Millipore Milli-Q ultrapure water preparation apparatus (Millipore Sigma, […]
The detailed information of Shimadzu UFLC-MS/MS 8050 liquid mass system equipped with Nexera X2UFLC liquid chromatography system and 8050 triple quadrupole mass spectrometers with an electrospray ionization source were listed in our previous study. The supporting LabSolution workstation was used for data […]
The separation without superposition of analytes in plasma sample was achieved on a Kinetex® C18 chromatographic column (100mm×2.1mm i.d.; 2.6 μm, 100 Å; Phenomenex, Inc., Torrance, CA, USA) assembled with a Phenomenex p/n AJ0-9000 C18 protection column. The mobile phase was consisted of 0.5 mM ammonium acetate in water (A) and ACN (B). The gradient elution program was selected ultimately as […]
95 % B (18.7–22 min). Column and automatic sampler temperature were set as 30 °C and 4 °C respectively. The flow rate of mobile phase was 0.35 mL/min while sample injection volume was 4 μL.
Multiple reaction monitoring (MRM) of positive or negative modes were used as scanning modes for the analytes and IS. Other essential parameters were successively optimized as: Nebulizing gas flow, 3 L/min; Heating gas flow, 10 L/min; Drying gas flow, 10 L/min; Interface temperature, 300 °C; DL temperature, 250 °C; Interface and detector voltage were each set as 3.0 kV and 1.8 kV. The detection parameters such as retention time (RT), dwell time (DT), quadrupole 1 pre-rod bias (Q1), collision energy […]
Table S1 The retention time and ion equivalent parameters of 4 constituents in rat […]
Constituents Retention Precursor Precursor Product time Pre energy Pre time (min) ion species ion ion (msec) Bias (V) Bias

Caco-2 cell monolayer = test system: Caco-2 cell monolayer; design: method as in PMID 36680806, PMID 26501241; details: Caco-2 cell monolayer model; cited from earlier work
[3] = design: method as in PMID 34303214; details: rats, p.o. SPC 30 g crude drug/kg; doses of 1-4: 0.062, 0.11, 0.71, 1.31 mg/kg; cited from earlier work
[4] = compartment model parameters, DAS 2.0, rats p.o. SPC 60 g crude drug/kg, Mean, 5 rats
[5] = statistical moment parameters, DAS 2.0, rats p.o. SPC 60 g crude drug/kg, Mean, 5 rats
[6] = statistical moment parameters, DAS 2.0, rats p.o. SPC 60 g crude drug/kg, Mean, 5 rats, in µg·h²/mL

Compound: COc1ccc(-c2coc3c(OC)c(O)ccc3c2=O)cc1 [Constituent 2, 8-O-methylretusin]
- time of slight secondary absorption peak [1]: 3 h
- K10 [2, 4]: 6.671 h⁻¹
- K12 [2, 4]: 0.394 h⁻¹
- K21 [2, 4]: 0.474 h⁻¹
- Ka [2, 4]: 2.056 h⁻¹
- Tlag [2, 4]: 0 h
- V1/F [2, 4]: 12.043 L/kg
- t1/2Ka [2, 4]: 20.246 h
- t1/2α [2, 4]: 34.861 h
- concentration at 0.083 h ([2]; rat, plasma, oral, time 0.083 h, rats p.o. SPC 60 g crude drug/kg, doses of 1-4: 0.124, 0.22, 1.4, 2.62 mg/kg, 5 rats): 9 ng/mL
- concentration at 0.25 h ([2]; rat, plasma, oral, time 0.25 h, rats p.o. SPC 60 g crude drug/kg, doses of 1-4: 0.124, 0.22, 1.4, 2.62 mg/kg, 5 rats): 22.9 ng/mL
- concentration at 0.5 h ([2]; rat, plasma, oral, time 0.5 h, rats p.o. SPC 60 g crude drug/kg, doses of 1-4: 0.124, 0.22, 1.4, 2.62 mg/kg, 5 rats): 12.3 ng/mL
- concentration at 0.75 h ([2]; rat, plasma, oral, time 0.75 h, rats p.o. SPC 60 g crude drug/kg, doses of 1-4: 0.124, 0.22, 1.4, 2.62 mg/kg, 5 rats): 5.23 ng/mL
- concentration at 1 h ([2]; rat, plasma, oral, time 1 h, rats p.o. SPC 60 g crude drug/kg, doses of 1-4: 0.124, 0.22, 1.4, 2.62 mg/kg, 5 rats): 3.33 ng/mL
- concentration at 1.5 h ([2]; rat, plasma, oral, time 1.5 h, rats p.o. SPC 60 g crude drug/kg, doses of 1-4: 0.124, 0.22, 1.4, 2.62 mg/kg, 5 rats): 1.97 ng/mL
- concentration at 2 h ([2]; rat, plasma, oral, time 2 h, rats p.o. SPC 60 g crude drug/kg, doses of 1-4: 0.124, 0.22, 1.4, 2.62 mg/kg, 5 rats): 0.809 ng/mL
- concentration at 3 h ([2]; rat, plasma, oral, time 3 h, rats p.o. SPC 60 g crude drug/kg, doses of 1-4: 0.124, 0.22, 1.4, 2.62 mg/kg, 5 rats): 0.809 ng/mL
- concentration at 4 h ([2]; rat, plasma, oral, time 4 h, rats p.o. SPC 60 g crude drug/kg, doses of 1-4: 0.124, 0.22, 1.4, 2.62 mg/kg, 5 rats): 0.409 ng/mL
- concentration at 6 h ([2]; rat, plasma, oral, time 6 h, rats p.o. SPC 60 g crude drug/kg, doses of 1-4: 0.124, 0.22, 1.4, 2.62 mg/kg, 5 rats): 0.445 ng/mL
- concentration at 8 h ([2]; rat, plasma, oral, time 8 h, rats p.o. SPC 60 g crude drug/kg, doses of 1-4: 0.124, 0.22, 1.4, 2.62 mg/kg, 5 rats): 0.161 ng/mL
- AUC(0-t) ([2]; rat, plasma, po, 0.22 mg/kg, compartment model parameters, DAS 2.0, rats p.o. SPC 60 g crude drug/kg, Mean, 5 rats, read-out: AUC(0-t)): 19.8 ng·h/mL
- AUC(0-inf) ([2]; rat, plasma, po, 0.22 mg/kg, compartment model parameters, DAS 2.0, rats p.o. SPC 60 g crude drug/kg, Mean, 5 rats, read-out: AUC(0-∞)): 22.4 ng·h/mL
- CL/F ([2]; rat, plasma, po, 0.22 mg/kg, compartment model parameters, DAS 2.0, rats p.o. SPC 60 g crude drug/kg, Mean, 5 rats, read-out: CL/F (converted)): 209 mL/min/kg
- half-life ([2]; rat, plasma, po, 0.22 mg/kg, compartment model parameters, DAS 2.0, rats p.o. SPC 60 g crude drug/kg, Mean, 5 rats, read-out: t1/2β (converted)): 2130 min
- AUC(0-t) ([2]; rat, plasma, po, 0.22 mg/kg, statistical moment parameters, DAS 2.0, rats p.o. SPC 60 g crude drug/kg, Mean, 5 rats, read-out: AUC(0-t)): 15.3 ng·h/mL
- AUC(0-inf) ([2]; rat, plasma, po, 0.22 mg/kg, statistical moment parameters, DAS 2.0, rats p.o. SPC 60 g crude drug/kg, Mean, 5 rats, read-out: AUC(0-∞)): 15.5 ng·h/mL
- CL/F ([2]; rat, plasma, po, 0.22 mg/kg, statistical moment parameters, DAS 2.0, rats p.o. SPC 60 g crude drug/kg, Mean, 5 rats, read-out: CLz/F (converted)): 238 mL/min/kg
- Cmax ([2]; rat, plasma, po, 0.22 mg/kg, statistical moment parameters, DAS 2.0, rats p.o. SPC 60 g crude drug/kg, Mean, 5 rats, read-out: Cmax): 25.3 ng/mL
- MRT last ([2]; rat, plasma, po, 0.22 mg/kg, statistical moment parameters, DAS 2.0, rats p.o. SPC 60 g crude drug/kg, Mean, 5 rats, read-out: MRT(0-t)): 1.01 h
- MRT inf ([2]; rat, plasma, po, 0.22 mg/kg, statistical moment parameters, DAS 2.0, rats p.o. SPC 60 g crude drug/kg, Mean, 5 rats, read-out: MRT(0-∞)): 1.3 h
- Tmax ([2]; rat, plasma, po, 0.22 mg/kg, statistical moment parameters, DAS 2.0, rats p.o. SPC 60 g crude drug/kg, Mean, 5 rats, read-out: Tmax): 15 min
- Vd/F ([2]; rat, plasma, po, 0.22 mg/kg, statistical moment parameters, DAS 2.0, rats p.o. SPC 60 g crude drug/kg, Mean, 5 rats, read-out: Vz/F): 22.1 L/kg
- half-life ([2]; rat, plasma, po, 0.22 mg/kg, statistical moment parameters, DAS 2.0, rats p.o. SPC 60 g crude drug/kg, Mean, 5 rats, read-out: t1/2z (converted)): 64 min
- AUC(0-t) ([2]; rat, plasma, po, 2.62 mg/kg, rats, p.o. SPC 60 g crude drug/kg, doses of 1-4: 0.124, 0.22, 1.42, 2.62 mg/kg, n = 5, read-out: AUC0→t Val.): 15.3 ng·h/mL
- AUC(0-inf) ([2]; rat, plasma, po, 2.62 mg/kg, rats, p.o. SPC 60 g crude drug/kg, doses of 1-4: 0.124, 0.22, 1.42, 2.62 mg/kg, n = 5, read-out: AUC0→∞ Val.): 15.5 ng·h/mL
- Tmax ([2]; rat, plasma, po, rats, p.o. SPC 60 g crude drug/kg, doses of 1-4: 0.124, 0.22, 1.42, 2.62 mg/kg, n = 5, read-out: Tmax Val.): 15 min
- Cz [2, 5]: 0.107 µg/L
- VRT(0-t) [2, 5]: 1.65 h^2
- VRT(0-∞) [2, 5]: 3.316 h^2
- elimination rate constant [2, 5]: 0.675 h⁻¹
- AUMC(0-t) [2, 6]: 15.37
- AUMC(0-∞) [2, 6]: 20.163
- Papp (Caco-2 cell monolayer): 2.48e-05 cm/s
- AUC0→t Obs. [3]: 9.7 ng·h/mL
- AUC0→∞ Obs. [3]: 0.0115 µg·h/mL
- Cmax Obs. [3]: 0.0136 µg/mL
